Entries after “also recorded” stand apart in the source; their conditions may differ.
Tests used:
[1] = tested on: wild-type Drosophila; test: T-maze choice assay, avoidance behavior to CO2, wild-type flies; type: in vivo; conditions: 0.67% CO2; 1-hexanol 10^-1, 2,3-butanedione 10^-2
Method: (a) A t-maze is used to show preference to a test odor or to a solvent. Flies are starved 24 hrs prior to assay. All assays performed for 1-min in the dark. A negative preference index indicates avoidance. (a) Flies in a T-maze were offered a choice between a 15 ml tube infused with 0.1ml of CO2 prior to start of assay, and another that was infused with air. (b) wildtype and Or83b−/− flies were presented with CO2, a mixture of CO2 and 2,3-butanedione (d4on), or d4on alone. (c) Flies were exposed to 10 ul d4on 10^−2 for 1 min, allowed to recover for 2 min in clean air and then assayed for avoidance to CO2. A control exposure to 1 min of 2-methylphenol (2 mpol) at 10^−2 and then a recovery period of 2 min is also assayed for avoidance behavior to CO2. (d) Flies are exposed to d4on for 1 min, allowed to recover for 2 min, and then assayed for behavior to ethyl acetate (2AC). Behavior to 2AC without pre-exposure is also measured. […]
T-maze behavioral testing using Drosophila stress odour, CO2, and mixtures were using techniques known in the art, with some modifications. […] The avoidance response was calculated as a Preference Index (PI)=(number of flies in test arm−number of flies in control arm)/(total number of flies in assay). […] The avoidance response was calculated as a Preference Index (PI)=(number of flies in test arm−number of flies in control arm)/(total number of flies in assay). […]

[2] = tested on: wild-type Drosophila; test: T-maze assay, avoidance to Drosophila stress odour (dSO); type: in vivo; conditions: odourant added to dSO
Method: T-maze behavior assay: a, Mean Preference Index (PI) of wild-type flies, given a choice between room air in 15 ml tube and either 0.1 ml of pure CO2 in a 15 ml tube (CO2), or binary mixtures of 0.1 ml pure CO2 and 1-hexanol (CO2+6ol) at 10^−1 dilution or 2,3-butanedione (CO2+d4on) at 10^−2 dilution, also in 15 ml tubes (see Methods). b, Mean PI of mutant flies given choices as in a. c, Mean PI of wild-type flies given choices between room air and odour collected from 70 untreated flies (mock), or 70 vortexed “emitter” flies of Drosophila stress odour (dSO), or mixtures of dSO with indicated odourants. n=6-9 trials (˜40 flies each), error bars=s.e.m. (T-test, *P<0.0001, **P<0.005, ***P<0.05).
T-maze behavioral testing using Drosophila stress odour, CO2, and mixtures were using techniques known in the art, with some modifications. In particular, the entire headspace from 15 ml capped “emitter” or “mock” fly tubes was withdrawn using fresh syringes and needles and infused into fresh capped 15 ml plastic tubes immediately prior to use in the T-maze. […] The avoidance response was calculated as a Preference Index (PI)=(number of flies in test arm−number of flies in control arm)/(total number of flies in assay). […] The avoidance response was calculated as a Preference Index (PI)=(number of flies in test arm−number of flies in control arm)/(total number of flies in assay). […]

SMILES: CC(=O)C(C)=O [2,3-butanedione]
- avoidance behavior to CO2 (Preference Index) [1]: reduction in mean avoidance behavior; also recorded: abolished
- avoidance behavior to dSO (Preference Index) [2]: significantly reduced avoidance behavior; also recorded: completely abolished

SMILES: CCCCCCO [1-hexanol]
- avoidance behavior to CO2 (Preference Index) [1]: reduction in mean avoidance behavior
- avoidance behavior to dSO (Preference Index) [2]: significantly reduced avoidance behavior

Reference: patent publication US8945595B2, “Insect repellent and attractants” (The Regents of the University of California, priority 2009, dated 2015)
